Numbers after ± are expanded uncertainties.
Details: Liquid, Ebulliometric method (Recirculating still)

| vapor or sublimation pressure (366.97 K) | vapor or sublimation pressure (378.82 K) | vapor or sublimation pressure (387.59 K) | vapor or sublimation pressure (397.84 K) | vapor or sublimation pressure (403.31 K) | vapor or sublimation pressure (408.91 K) | vapor or sublimation pressure (413.59 K) | vapor or sublimation pressure (418.73 K) | vapor or sublimation pressure (422.25 K) | vapor or sublimation pressure (426.39 K) | SMILES | vapor or sublimation pressure (332.19 K) | vapor or sublimation pressure (346.26 K) | vapor or sublimation pressure (354.42 K) | vapor or sublimation pressure (362.18 K) | vapor or sublimation pressure (366.46 K) | vapor or sublimation pressure (371.63 K) | vapor or sublimation pressure (375.04 K) | vapor or sublimation pressure (378.75 K) | vapor or sublimation pressure (382.02 K) |
| --- | --- | --- | --- | --- | --- | --- | --- | --- | --- | --- | --- | --- | --- | --- | --- | --- | --- | --- | --- |
| – | – | – | – | – | – | – | – | – | – | CSSC [2,3-dithiabutane] | 18.2 ± 0.4 kPa | 31.1 ± 0.4 kPa | 41.7 ± 0.4 kPa | 53.9 ± 0.4 kPa | 61.9 ± 0.4 kPa | 72.9 ± 0.4 kPa | 81.1 ± 0.4 kPa | 90.9 ± 0.4 kPa | 100.6 ± 0.5 kPa |
| 15.8 ± 0.4 kPa | 24.1 ± 0.4 kPa | 32.3 ± 0.4 kPa | 44.4 ± 0.4 kPa | 52.8 ± 0.4 kPa | 62.2 ± 0.4 kPa | 71.1 ± 0.4 kPa | 82.1 ± 0.4 kPa | 90.5 ± 0.4 kPa | 100.7 ± 0.4 kPa | CCSSCC [3,4-dithiahexane] | – | – | – | – | – | – | – | – | – |

Source: the NIST ThermoML archive (doi:10.1016/j.fluid.2010.02.043)
